This is an account of results in patent publication US10544106B2, “Certain chemical entities, compositions, and methods” (NeuPharma, Inc., priority 2016, dated 2020).

For this experiment, the target named is BTK (Homo sapiens (Human), UniProt Q06187). The experiment can be described thus: Z'-LYTE kinase inhibition assay against BTK. The conditions noted are these: for IC50: series of concentrations, GraphPad Prism 5. It counts as biochemical. A digest of the protocol: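 Z′-LYTE FRET readout: 1.04-10.4 ng BTK with 2 μM Tyr 01 peptide, ATP at Km, in 50 mM HEPES pH 7.5, 10 mM MgCl2, 1 mM EGTA, 0.01% BRIJ-35, 1% DMSO. 60 min kinase reaction at room temperature, then 60 min development; IC50 from 10-point, 3-fold titrations.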
Sequence of BTK (Q06187 whole entry): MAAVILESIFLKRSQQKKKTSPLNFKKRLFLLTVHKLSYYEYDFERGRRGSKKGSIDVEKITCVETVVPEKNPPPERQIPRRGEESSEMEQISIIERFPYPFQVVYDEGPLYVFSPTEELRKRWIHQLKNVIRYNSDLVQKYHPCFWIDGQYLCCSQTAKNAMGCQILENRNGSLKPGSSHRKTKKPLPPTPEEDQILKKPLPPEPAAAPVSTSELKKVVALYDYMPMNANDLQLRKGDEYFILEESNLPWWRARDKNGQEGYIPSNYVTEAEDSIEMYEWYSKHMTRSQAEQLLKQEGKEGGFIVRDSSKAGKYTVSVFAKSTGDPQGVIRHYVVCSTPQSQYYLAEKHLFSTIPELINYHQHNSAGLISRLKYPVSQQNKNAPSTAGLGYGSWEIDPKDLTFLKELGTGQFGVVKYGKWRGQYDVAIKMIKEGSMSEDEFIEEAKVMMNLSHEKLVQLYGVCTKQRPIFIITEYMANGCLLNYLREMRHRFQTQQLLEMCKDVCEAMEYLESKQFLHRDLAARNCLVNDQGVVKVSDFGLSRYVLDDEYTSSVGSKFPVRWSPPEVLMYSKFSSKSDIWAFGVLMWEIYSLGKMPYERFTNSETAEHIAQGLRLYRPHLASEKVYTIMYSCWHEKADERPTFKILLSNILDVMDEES

[1] abbreviates: compound at 100 nM, ATP concentration at Km.

For `CC#CC(=O)N1CCC(c2nc(-c3ccc(C(=O)Nc4cc(C5CC5)ccn4)c(F)c3)n3c(N)nccc23)C1` (stereo not shown) [C247, 4-(5-amino-1-(1-(but-2-ynoyl)pyrrolidin-3-yl)imidazo[1,5-c]pyrimidin-3-yl)-N-(4-cyclopropylpyridin-2-yl)-2-fluorobenzamide], the IC50 was under 100 nM.

For `C=CC(=O)N1CCC(c2cc(-c3ccc(C(=O)Nc4cccc(F)c4)nc3)cc3cncnc23)C1` (stereo not shown) [C097, 5-(8-(1-acryloylpyrrolidin-3-yl)quinazolin-6-yl)-N-(3-fluorophenyl)picolinamide], the inhibition at 0.1 µM under setting [1] is under 50%.

`C=CC(=O)Nc1cccc(-c2cc(-c3ccc(Oc4ccccn4)cc3F)cc3cnc(N)nc23)c1` [C157, N-(3-(2-amino-6-(2-fluoro-4-(pyridin-2-yloxy)phenyl)quinazolin-8-yl)phenyl)acrylamide]: the IC50 was under 100 nM. The molecule also yielded an inhibition at 0.1 µM under setting [1] of over 50%.

In the case of `C=CC(=O)N1CCCC(c2cc(-c3cccnc3)cc3cncnc23)C1` (stereo not shown) [C031, 1-(3-(6-(pyridin-3-yl)quinazolin-8-yl)piperidin-1-yl)prop-2-en-1-one], the inhibition at 0.1 µM under setting [1] is under 50%.

Under setting [1], `C=CC(=O)N1CCC(c2cc(-c3ccc(C(=O)Nc4cc(C5CC5)ccn4)c(F)c3)n3cnccc23)C1` (stereo not shown) [C165, 4-(5-(1-acryloylpyrrolidin-3-yl)pyrrolo[1,2-c]pyrimidin-7-yl)-N-(4-cyclopropylpyridin-2-yl)-2-fluorobenzamide] displayed an inhibition at 0.1 µM of under 50%.

As to `C=CC(=O)N1CCC(c2nc(-c3ccc(Oc4ccccn4)cc3)n3c(N)nccc23)C1` (racemic) [C224, (R/S)-1-(3-(5-amino-3-(4-(pyridin-2-yloxy)phenyl)imidazo[1,5-c]pyrimidin-1-yl)pyrrolidin-1-yl)prop-2-en-1-one], the IC50 was under 100 nM. Further, the inhibition at 0.1 µM under setting [1] was over 50%.

Turning to `C=CC(=O)N1CCC(c2cc(-c3cncc(C(F)(F)F)c3)cc3cncnc23)C1` (stereo not shown) [C066, 1-(3-(6-(5-(trifluoromethyl)pyridin-3-yl)quinazolin-8-yl)pyrrolidin-1-yl)prop-2-en-1-one], the inhibition at 0.1 µM under setting [1] was under 50%.

As for `C=CC(=O)Nc1cccc(-c2cc(-c3ccc(C(=O)Nc4cccc(F)c4)nc3)cc3cncnc23)c1` [C092, 5-(8-(3-acrylamidophenyl)quinazolin-6-yl)-N-(3-fluorophenyl)picolinamide], under setting [1], the inhibition at 0.1 µM was over 50%.

Molecule `CC#CC(=O)N1CCC(c2nc(-c3ccc(C(=O)Nc4cc(C5CC5)ccn4)cc3)n3c(N)ncnc23)C1` (stereo not shown) [C237, 4-(4-amino-8-(1-(but-2-ynoyl)pyrrolidin-3-yl)imidazo[1,5-a][1,3,5]triazin-6-yl)-N-(4-cyclopropylpyridin-2-yl)benzamide] displayed an IC50 of under 100 nM.

In turn, `C=CC(=O)Nc1cccc(-c2cc(-c3ccc(C(=O)Nc4ccccn4)cc3F)c(N)c3cncnc23)c1` [C177, 4-(8-(3-acrylamidophenyl)-5-aminoquinazolin-6-yl)-3-fluoro-N-(pyridin-2-yl)benzamide] returned an inhibition at 0.1 µM under setting [1] of under 50%.

Turning to `C=CC(=O)Nc1cccc(-c2cc(-c3ccc(Oc4cc(C(N)=O)ccn4)cc3)cc3cncnc23)c1` [C191, 2-(4-(8-(3-acrylamidophenyl)quinazolin-6-yl)phenoxy)isonicotinamide], the concentration for half-maximal inhibition (IC50) was under 100 nM. Further, the inhibition at 0.1 µM under setting [1] is over 50%.

`C=CC(=O)Nc1cccc(-c2cc(-c3ccc(C(=O)Nc4cc(C5CC5)ccn4)cc3)c(N)c3cncnc23)c1` [C171, 4-(8-(3-acrylamidophenyl)-5-aminoquinazolin-6-yl)-N-(4-cyclopropylpyridin-2-yl)benzamide] displayed an IC50 of under 100 nM. Under setting [1], this molecule yielded an inhibition at 0.1 µM of over 50%.

For the molecule `C=CC(=O)Nc1cccc(-c2cc(-c3ccc(Oc4cc(C(F)(F)F)ccn4)cc3F)cc3cncnc23)c1` [C180], under setting [1], the inhibition at 0.1 µM is over 50%.

Turning to `C=CC(=O)N1CCC(c2cc(-c3ccc(C(=O)Nc4cc(C(F)(F)F)ccn4)cc3F)n3cnccc23)C1` (stereo not shown) [C130, 4-(5-(1-acryloylpyrrolidin-3-yl)pyrrolo[1,2-c]pyrimidin-7-yl)-3-fluoro-N-(4-(trifluoromethyl)pyridin-2-yl)benzamide], the inhibition at 0.1 µM under setting [1] was under 50%.

Turning to `C=CC(=O)Nc1cccc(-c2cc(-c3ccc(C(=O)Nc4cc(C(F)(F)F)ccn4)cc3F)cc3cncnc23)c1` [C129, 4-(8-(3-acrylamidophenyl)quinazolin-6-yl)-3-fluoro-N-(4-(trifluoromethyl)pyridin-2-yl)benzamide], the IC50 is under 100 nM. Under setting [1], this molecule registered an inhibition at 0.1 µM of over 50%.

For `C=CC(=O)N1CCC(c2nc(-c3ccc(Oc4ncccc4C(F)(F)F)cc3)n3c(N)nccc23)C1` (stereo not shown) [C218, 1-(3-(5-amino-3-(4-((3-(trifluoro-methyl)pyridin-2-yl)oxy)phenyl)imidazo[1,5-c]pyrimidin-1-yl)pyrrolidin-1-yl)prop-2-en-1-one], the IC50 is under 100 nM. In addition, the inhibition at 0.1 µM under setting [1] is over 50%.

Turning to `C=CC(=O)Nc1cccc(-c2cc(-c3ccc(C(=O)Nc4cc(C#N)ccn4)cc3F)cc3cncnc23)c1` [C154, 4-(8-(3-acrylamidophenyl)quinazolin-6-yl)-N-(4-cyanopyridin-2-yl)-3-fluorobenzamide], the inhibition at 0.1 µM under setting [1] was over 50%.

For the molecule `C=CC(=O)N1CCC(c2nc(-c3ccc(Oc4ccccn4)cc3)n3c(N)nccc23)C1` (racemic) [C225, (S/R)-1-(3-(5-amino-3-(4-(pyridin-2-yloxy)phenyl)imidazo[1,5-c]pyrimidin-1-yl)pyrrolidin-1-yl)prop-2-en-1-one], the IC50 was under 100 nM. Under setting [1], the “% Inhibition against BTK” value was “++ (more than 50% inhibition)”.

`C=CC(=O)Nc1cccc(-c2cc(-c3ccccc3C#N)cc3cnc(N)nc23)c1` [C091, N-(3-(2-amino-6-(2-cyanophenyl)quinazolin-8-yl)phenyl)acrylamide] came in with an IC50 of under 100 nM. The molecule further showed an inhibition at 0.1 µM under setting [1] of over 50%.

As for `C=CC(=O)N1CCC(c2cc(-c3ccc(Oc4ccccn4)cc3OC)n3cnccc23)C1` (stereo not shown) [C169, 1-(3-(7-(2-methoxy-4-(pyridin-2-yloxy)phenyl)pyrrolo[1,2-c]pyrimidin-5-yl)pyrrolidin-1-yl)prop-2-en-1-one], the inhibition at 0.1 µM under setting [1] is under 50%.

As to `CC#CC(=O)N1CCC(c2nc(-c3ccc(C(=O)Nc4ccccn4)cc3)n3c(N)ncnc23)C1` (stereo not shown) [C205, 4-(4-amino-8-(1-(but-2-ynoyl)pyrrolidin-3-yl)imidazo[1,5-a][1,3,5]triazin-6-yl)-N-(pyridin-2-yl)benzamide], the inhibition at 0.1 µM under setting [1] was over 50%.

Regarding `C=CC(=O)N1CCC(c2cc(-c3ccc(Oc4ccccc4)cc3)c(N)c3cncnc23)C1` (stereo not shown) [C192, 1-(3-(5-amino-6-(4-phenoxyphenyl)quinazolin-8-yl)pyrrolidin-1-yl)prop-2-en-1-one], the IC50 is over 100 nM. The same molecule had an inhibition at 0.1 µM under setting [1] of under 50%.

As to `C=CC(=O)N1CCC(c2cc(-c3ccc(Oc4ccccn4)c(F)c3)cc3cncnc23)C1` (stereo not shown) [C160, 1-(3-(6-(3-fluoro-4-(pyridin-2-yloxy)phenyl)quinazolin-8-yl)pyrrolidin-1-yl)prop-2-en-1-one], the inhibition at 0.1 µM under setting [1] is over 50%.

Turning to `C=CC(=O)Nc1cccc(-c2cc(-c3ccc(C(=O)Nc4ccccn4)cc3Cl)c(N)c3cncnc23)c1` [C190, 4-(8-(3-acrylamidophenyl)-5-aminoquinazolin-6-yl)-3-chloro-N-(pyridin-2-yl)benzamide], the IC50 was under 100 nM. Moreover, the inhibition at 0.1 µM under setting [1] is over 50%.
